According to the NIST ThermoML archive (doi:10.1007/s10765-009-0602-6):
Several values for one entry are separate records, joined by “and”; a condition that tells them apart may be missing. Equal entries are not always repeated.

Test: molar heat capacity at constant volume; xn = mol fraction of the nth substance listed
Settings: x1 = 0.2607

N [ammonia] + O
Settings	molar heat capacity at constant volume
601.54 K, Fluid (supercritical or subcritical phases), Mass density=301.94 kg/m3, isochoric heat capacity	93.57 J/K/mol
601.55 K, Fluid (supercritical or subcritical phases), Mass density=291.16 kg/m3, isochoric heat capacity	90.62 J/K/mol
601.56 K, Fluid (supercritical or subcritical phases), Mass density=188.05 kg/m3, isochoric heat capacity	61.55 J/K/mol
601.62 K, Fluid (supercritical or subcritical phases), Mass density=285.71 kg/m3, isochoric heat capacity	88.9 J/K/mol
601.63 K, Fluid (supercritical or subcritical phases), Mass density=299.79 kg/m3, isochoric heat capacity	98.44 J/K/mol
601.66 K, Fluid (supercritical or subcritical phases), Mass density=294.44 kg/m3, isochoric heat capacity	99.98 J/K/mol
601.71 K, Fluid (supercritical or subcritical phases), Mass density=285.71 kg/m3, isochoric heat capacity	87.96 J/K/mol
601.71 K, Fluid (supercritical or subcritical phases), Mass density=299.79 kg/m3, isochoric heat capacity	95.13 J/K/mol
601.75 K, Fluid (supercritical or subcritical phases), Mass density=188.05 kg/m3, isochoric heat capacity	64.8 J/K/mol
601.75 K, Fluid (supercritical or subcritical phases), Mass density=195.99 kg/m3, isochoric heat capacity	103.89 J/K/mol
601.75 K, Liquid, Isochoric heat capacity	103.89 J/K/mol
601.79 K, Fluid (supercritical or subcritical phases), Mass density=195.99 kg/m3, isochoric heat capacity	94.8 J/K/mol
601.82 K, Fluid (supercritical or subcritical phases), Mass density=294.44 kg/m3, isochoric heat capacity	98.74 J/K/mol
601.88 K, Fluid (supercritical or subcritical phases), Mass density=376.89 kg/m3, isochoric heat capacity	79.03 J/K/mol
601.89 K, Fluid (supercritical or subcritical phases), Mass density=195.99 kg/m3, isochoric heat capacity	87.6 J/K/mol
601.97 K, Fluid (supercritical or subcritical phases), Mass density=297.6 kg/m3, isochoric heat capacity	100.3 J/K/mol
601.97 K, Fluid (supercritical or subcritical phases), Mass density=376.89 kg/m3, isochoric heat capacity	76.68 J/K/mol
601.98 K, Fluid (supercritical or subcritical phases), Mass density=195.99 kg/m3, isochoric heat capacity	77.82 J/K/mol
602.05 K, Fluid (supercritical or subcritical phases), Mass density=271.09 kg/m3, isochoric heat capacity	106.73 J/K/mol
602.05 K, Fluid (supercritical or subcritical phases), Mass density=376.89 kg/m3, isochoric heat capacity	80.09 J/K/mol
602.05 K, Liquid, Isochoric heat capacity	106.73 J/K/mol
602.08 K, Fluid (supercritical or subcritical phases), Mass density=271.09 kg/m3, isochoric heat capacity	104.24 J/K/mol
602.09 K, Fluid (supercritical or subcritical phases), Mass density=271.09 kg/m3, isochoric heat capacity	100.44 J/K/mol
602.12 K, Fluid (supercritical or subcritical phases), Mass density=271.09 kg/m3, isochoric heat capacity	96.3 J/K/mol
602.13 K, Fluid (supercritical or subcritical phases), Mass density=307.35 kg/m3, isochoric heat capacity	96.93 J/K/mol
602.14 K, Fluid (supercritical or subcritical phases), Mass density=312.91 kg/m3, isochoric heat capacity	83.15 J/K/mol
602.22 K, Fluid (supercritical or subcritical phases), Mass density=312.91 kg/m3, isochoric heat capacity	82.81 J/K/mol
602.23 K, Fluid (supercritical or subcritical phases), Mass density=307.35 kg/m3, isochoric heat capacity	92.38 J/K/mol
602.24 K, Fluid (supercritical or subcritical phases), Mass density=271.09 kg/m3, isochoric heat capacity	93.92 J/K/mol
602.26 K, Fluid (supercritical or subcritical phases), Mass density=205.58 kg/m3, isochoric heat capacity	105.31 J/K/mol
602.26 K, Liquid, Isochoric heat capacity	105.31 J/K/mol
602.3 K, Fluid (supercritical or subcritical phases), Mass density=312.91 kg/m3, isochoric heat capacity	81.1 J/K/mol
602.31 K, Fluid (supercritical or subcritical phases), Mass density=205.58 kg/m3, isochoric heat capacity	100.51 J/K/mol
602.38 K, Fluid (supercritical or subcritical phases), Mass density=271.09 kg/m3, isochoric heat capacity	89.02 J/K/mol
602.39 K, Fluid (supercritical or subcritical phases), Mass density=205.58 kg/m3, isochoric heat capacity	86.66 J/K/mol
602.39 K, Fluid (supercritical or subcritical phases), Mass density=312.91 kg/m3, isochoric heat capacity	81.72 J/K/mol
602.4 K, Fluid (supercritical or subcritical phases), Mass density=307.35 kg/m3, isochoric heat capacity	94.4 J/K/mol
602.45 K, Liquid, Isochoric heat capacity	105.13 J/K/mol
602.48 K, Fluid (supercritical or subcritical phases), Mass density=205.58 kg/m3, isochoric heat capacity	75.47 J/K/mol
602.48 K, Fluid (supercritical or subcritical phases), Mass density=243.98 kg/m3, isochoric heat capacity	100.07 J/K/mol
602.48 K, Fluid (supercritical or subcritical phases), Mass density=260.02 kg/m3, isochoric heat capacity	100.07 J/K/mol
602.48 K, Fluid (supercritical or subcritical phases), Mass density=307.35 kg/m3, isochoric heat capacity	89.36 J/K/mol
602.48 K, Fluid (supercritical or subcritical phases), Mass density=312.91 kg/m3, isochoric heat capacity	84.69 J/K/mol
602.48 K, Fluid (supercritical or subcritical phases), Mass density=342.18 kg/m3, isochoric heat capacity	86.56 J/K/mol
602.48 K, Fluid (supercritical or subcritical phases), Mass density=376.89 kg/m3, isochoric heat capacity	81.21 J/K/mol
602.48 K, Fluid (supercritical or subcritical phases), Mass density=456.58 kg/m3, isochoric heat capacity	66.2 J/K/mol
602.51 K, Fluid (supercritical or subcritical phases), Mass density=271.09 kg/m3, isochoric heat capacity	86.04 J/K/mol
602.56 K, Fluid (supercritical or subcritical phases), Mass density=205.58 kg/m3, isochoric heat capacity	77.07 J/K/mol
602.56 K, Fluid (supercritical or subcritical phases), Mass density=243.98 kg/m3, isochoric heat capacity	96.22 J/K/mol
602.56 K, Fluid (supercritical or subcritical phases), Mass density=260.02 kg/m3, isochoric heat capacity	96.22 J/K/mol
602.56 K, Fluid (supercritical or subcritical phases), Mass density=307.35 kg/m3, isochoric heat capacity	92.18 J/K/mol
602.56 K, Fluid (supercritical or subcritical phases), Mass density=342.18 kg/m3, isochoric heat capacity	87.35 J/K/mol
602.62 K, Fluid (supercritical or subcritical phases), Mass density=195.99 kg/m3, isochoric heat capacity	72.88 J/K/mol
602.65 K, Fluid (supercritical or subcritical phases), Mass density=243.98 kg/m3, isochoric heat capacity	98.1 J/K/mol
602.65 K, Fluid (supercritical or subcritical phases), Mass density=260.02 kg/m3, isochoric heat capacity	98.1 J/K/mol
602.65 K, Fluid (supercritical or subcritical phases), Mass density=376.89 kg/m3, isochoric heat capacity	81.09 J/K/mol
602.65 K, Fluid (supercritical or subcritical phases), Mass density=456.58 kg/m3, isochoric heat capacity	68.55 J/K/mol
602.74 K, Fluid (supercritical or subcritical phases), Mass density=205.58 kg/m3, isochoric heat capacity	73.93 J/K/mol
602.74 K, Fluid (supercritical or subcritical phases), Mass density=214.83 kg/m3, isochoric heat capacity	106.91 J/K/mol
602.74 K, Fluid (supercritical or subcritical phases), Mass density=243.98 kg/m3, isochoric heat capacity	94.92 J/K/mol
602.74 K, Fluid (supercritical or subcritical phases), Mass density=260.02 kg/m3, isochoric heat capacity	94.92 J/K/mol
602.74 K, Fluid (supercritical or subcritical phases), Mass density=342.18 kg/m3, isochoric heat capacity	87.43 J/K/mol
602.74 K, Fluid (supercritical or subcritical phases), Mass density=376.89 kg/m3, isochoric heat capacity	79.29 J/K/mol
602.74 K, Liquid, Isochoric heat capacity	106.91 J/K/mol
602.82 K, Fluid (supercritical or subcritical phases), Mass density=214.83 kg/m3, isochoric heat capacity	102.73 J/K/mol
602.82 K, Fluid (supercritical or subcritical phases), Mass density=456.58 kg/m3, isochoric heat capacity	67.55 J/K/mol
602.85 K, Fluid (supercritical or subcritical phases), Mass density=218.92 kg/m3, isochoric heat capacity	108.5 J/K/mol
602.85 K, Liquid, Isochoric heat capacity	108.5 J/K/mol
602.91 K, Fluid (supercritical or subcritical phases), Mass density=214.83 kg/m3, isochoric heat capacity	94.28 J/K/mol
602.91 K, Fluid (supercritical or subcritical phases), Mass density=218.92 kg/m3, isochoric heat capacity	99.09 J/K/mol
602.91 K, Fluid (supercritical or subcritical phases), Mass density=243.98 kg/m3, isochoric heat capacity	106.2 J/K/mol
602.91 K, Fluid (supercritical or subcritical phases), Mass density=311.19 kg/m3, isochoric heat capacity	90.5 J/K/mol
602.91 K, Fluid (supercritical or subcritical phases), Mass density=342.18 kg/m3, isochoric heat capacity	82.9 J/K/mol
602.91 K, Liquid, Isochoric heat capacity	106.2 J/K/mol
602.96 K, Fluid (supercritical or subcritical phases), Mass density=224.53 kg/m3, isochoric heat capacity	111.03 J/K/mol
602.96 K, Fluid (supercritical or subcritical phases), Mass density=230.31 kg/m3, isochoric heat capacity	111.35 J/K/mol
602.96 K, Liquid, Isochoric heat capacity	111.35 J/K/mol and 111.03 J/K/mol
602.97 K, Fluid (supercritical or subcritical phases), Mass density=227.54 kg/m3, isochoric heat capacity	112.45 J/K/mol
602.97 K, Liquid, Isochoric heat capacity	112.45 J/K/mol
602.99 K, Fluid (supercritical or subcritical phases), Mass density=214.83 kg/m3, isochoric heat capacity	91.33 J/K/mol
602.99 K, Fluid (supercritical or subcritical phases), Mass density=224.53 kg/m3, isochoric heat capacity	109.57 J/K/mol
